Data published in patent US20240270786A1, “STEROID COMPOUNDS” (Epirium Bio Inc., priority 2022, published 2024).
Values joined by “and” are separate entries in the source; they are usually repeats but may differ in a detail not shown here. Equal entries are not always repeated.

Experiments:
PGC-1α = assay: In vivo PGC-1α expression in liver of LPS-treated mice (ELISA); set-up: species or system C57BL/6 mice; conditions: for PGC-1α levels: C57BL/6 mice; for PGC-1α level (%): Control = 100
Experimental: C57BL/6 mice were procured from Vivo Bio Tech Ltd. Male mice were used for the study within an age range of 7 to 8 weeks. Body weight for these mice ranged from 20 g to 25 g. Animals were housed in a group of 6 in individually ventilated cages with temperature of 22±3° C., a relative humidity of 50 to 60%. The bottom of the cages was layered with sterilized corn cob. Animals were provided with gamma irradiated feed and autoclaved drinking water ad-libitum. The IVCs were maintained at an environment controlled (Centrally Air-Conditioned) room at a temperature of 22±3° C., a relative humidity of 50 to 60%, light intensity of 250-300 lux and a 12 hour light-dark cycle and noise intensity of <85 db.
Method of Preparation: LPS was dosed at 3 mg/kg in a dose volume of 10 ml/kg. For this, 0.3 mg/ml of LPS solution (Micronized suspension) was prepared. Butter paper was placed on analytical balance, tarred and LPS was placed on butter paper and its weight was noted down. LPS was transferred to 15 ml falcon tube. Then required amount of normal saline was added to it to make it 0.3 mg/ml. The solution was vortexed properly for 5 minutes and placed on ice. LPS solution was vortexed every time before aspiration and injection.
LPS was dosed at 3 mg/kg. Each test compound was dosed at 10 mg/kg, 2 hour and 15 min post LPS administration.
0.5% CMC was used as a vehicle with a dose volume of 10 ml/kg. An IP route was used for LPS, and a PO route was used for each test compound. Animals were sacrified 24 hours post LPS dosing, and plasma were collected. PGC-1α level was measured in liver samples, and other tissues were stored for future analysis. PGC-1α level was checked using ELISA kit—CUSABIO Mouse PPARGC1A ELISA kit.
Protocol: One day before start of the experiment C57BL/6 Mice (Male, 6-7-week-old) were randomized on the basis of their body weight and were divided into groups. All the cages were assigned the respective group name. Animals inside each cage were marked on the base of the tails with permanent marker to distinguish each animal. Mice were fasted overnight. Next day morning animals were dosed with test item. Group 1 (Control) and Group 2 (LPS) Animals were dosed with vehicle (0.5% CMC). Test items were prepared in 0.5% CMC by trituration in mortar and pestle and addition of CMC drop by drop. 2 hour post test item/vehicle dosing animals were administered with LPS through IP route at 3 mg/kg of body weight. Group 1 (Control) animals were administered with saline. 0.25 hour post LPS administration, animals were again dosed with test item/vehicle. Post dosing, animals were returned to their respective cages and kept until termination of the study. No feed was offered to any group. Animals were provided with water. 24 hour post LPS administration, blood was collected from each animal under influence of mild isoflurane anesthesia through retro-orbital technique. Animals were sacrificed by CO2 asphyxiation technique. Post-termination, animals were dissected and vital organs, liver, brain, skeleton muscle were collected in Eppendorf tubes and flash frozen in liquid nitrogen. Serum was collected from whole blood by centrifuging it at 4° C. at 10,000 RPM and for 10 minutes. (Blood was left for 2 hour for coagulation before centrifugation) After completion of the experiment, all collected samples were stored at −80° C. until analysis.
Assay Methods/Protocol: The mortar was chilled with liquid nitrogen and then the small tissue pieces were grinded in the presence of liquid nitrogen to a fine powder. Immediately after grinding, transferred small amount of tissue powder to a 1.5 ml micro centrifuge tube containing 1.0 ml lysis buffer (RIPA buffer+Protease inhibitor). The samples were then incubated on ice for 2 hours. The samples were vortexed every 15 minutes. The samples were then centrifuged at 13000×g for 15 minutes at 2-8° C. After centrifugation the supernatant was removed carefully and pellet was discarded. […]

[1] = tested on: PGC-1α expression in C2C12 cells; assay: In vitro PGC-1α expression in C2C12 cells (cell ELISA); assay type: cell-based; conditions: 5000 cells/well, OD @ 650 nm, DMSO control = 100
Experimental: Culture conditions: DMEM containing 25 mM glucose with 10% FBS supplementation; grown at 37° C. and 5% CO2.
Drugs: (+)-Epicatechin, AICAR (direct activator of AMPK).
Assay Conditions: C2C12 cells were cultured in DMEM supplemented in 10% FBS upto 80% confluence. The cells were further trypsinized and seeded into a 96 well plate at a density of 5000 cells/well (well volume—100 μL) (Day 0). Following attachment, the cells were allowed to reach 80-90% confluence in the plate (typically 48 hours post seeding) and further differentiated using DMEM+2% Horse Serum (200 μL/well). The media was changed every day or at least every alternate day for 5 days to allow myoblasts to differentiate into myotubes. On day 7 (post seeding), the cells were treated with standards and test compounds for PGC-1 α assay.
PGC-1α assay: For the detection of PGC-1a, the cells were incubated with 0.5 μg/ml primary antibody (Merck, WH0010891M3) in PBS-T containing 5% BSA at 4° C. overnight. The cells were then washed three times with PBS-T for 5 minutes and incubated with 1:1000 dilution secondary antibody (Anti-rabbit IgG, HRP-linked Antibody, Cell Signaling) in PBS-T with 1% BSA for 1 hour at RT. Cells were washed three times with PBS-T for 5 minutes The cells were incubated with 100 μl TMB substrate solution for 30 minutes and the reaction was stopped with 100 μl of 2N H2SO4. […] (For plate optical density calculations, a background correction was taken at 540 nm). The final PGC-1a activation % is average of activation of 6 replicates.

[2] = Pharmacokinetics: quantitative determination of compounds in mice plasma; assay type: in vivo, C57BL/6 Mice; conditions: 10 mg/kg PO single dose, vehicle 10% NMP
Experimental: C57BL/6 Mice, Age 7-9 weeks, body weight range 20-25 g were used. The mice were fasted overnight. Mice were dosed once a day for a single day at 10 mg/kg, 10 mg/kg. 6 time-points were used for whole blood. 10% NMP was used as a vehicle. 9 animals were used per treatment, with three groups of three animals each. Group 1 had time points at 15 and 60 minutes, Group 2 had time points at 30 and 120 minutes, and Group 3 had time points at 90 and 240 minutes. An Oral (PO) route was used. Plasma and brain samples were collected (brain sample collected at terminal time point). Plasma was collected through the centrifugation of whole blood at 10,000 rpm for 10 minutes at 4° C. Samples were stored at −80° C. until processing.
1.00 mg/mL in 100% MeOH PP vials (prepared at RT yellow light) at 2-8° C. were used as stock solution. 12.22-50000 ng/mL using 80% MeOH PP vials (prepared at RT yellow light) at 2-8° C. were used as working solution. 0.98-4000 ng/mL (prepared at RT yellow light) was used for the curve range. For Compounds 26, 40, and 50, 1.00 mg/mL of Compound 53 in 100% methanol Ria vials (Prepared at RT yellow light) was used as IS stock solution, and 80 ng/mL of Compound 53 in 80% methanol (Prepared at RT yellow light) was used as IS working solution. For Compound 36, 1.00 mg/mL of Compound 47 in 100% methanol Ria vials (Prepared at RT yellow light) was used as IS stock solution, and 80 ng/mL of Compound 47 in 80% methanol (Prepared at RT yellow light) was used as IS working solution. A linear, 1/×2 fit type was used. The injection volume was 10 μL for Compounds 26 and 36, and 5 μL for Compounds 40 and 50. Mobile Phase A was 0.1% Formic Acid in water at room temperature. Mobile Phase B was 100% methanol at room temperature. R0 wash solution was 80% methanol at room temperature. R3 wash solution was IPA/MeOH/ACN/water (1:1:1:1) at room temperature. The column was Agilent Eclipse 50*2.1 mm 1.8 μm and the instrument was Shimadzu LC-40 UPLC and AB Sciez 6500+ with LCMS002.
Using a pipette, 25 μL of each sample were aliquoted (calibration curve sample, QC samples and blank matrix) to labeled 1.5 ml eppendorf. Using a pipette, 5.0 μL of IS of conc. 80 ng (Cocktail IS) was aliquoted to each standards and samples except Blank. All tubes were mixed on a multi-tube vortex for approximately 30 seconds. 50 μL of 10 mM Sodium bi-carbonate were added. 1 ml of tert-butyl methyl ether (TBME) was added. All tubes were mixed on a multi-tube vortex for approximately 5 minutes then centrifuged for 10 min at 5,000 rpm for Compounds 26 and 36 and at 10,000 rpm for Compounds 40 and 50, 4° C. The sample was kept in methanol containing dry ice for few seconds to freeze the Aqueous layer (flash freeze method). The upper organic layer was poured from the frozen tubes into the labeled 12×75-mm rial vials and evaporated to dryness under nitrogen using Liquid Evaporator (30° C., ˜15 psi, ˜10 mins). 200 μl of reconstitution solution (0.1% Formic Acid: MeOH (20:80 v/v) were added into each tube. Samples were Vortexed for 30 seconds then transferred to amber glass injection vials for injection.
After test item administration, blood samples were collected from individual animals in previously labeled Heparinised blood collection tubes. Blood samples were collected from retro orbital plexus. The time points for collection of blood samples from all the animals are; 0.25, 0.5, 1, 2 and 4 hr. The collected samples were subjected to centrifugation @ 10,000 rpm for 10 minutes at 40° C. for separation of plasma. Thereafter, plasma samples were collected in previously labeled plasma tubes. These were stored at −80° C. until analysis.

[3] = LPS 3 mg/Kg IP, test compound 10 mg/kg PO BID, liver, 24 hours post LPS
[4] = LPS 0.25 + 0.5 + 1 mg/kg, test compound 10 mg/kg

SMILES | PGC-1α levels (PGC-1α; [3]) | PGC-1α level (%) (PGC-1α; [3]) | PGC-1α level (PGC-1α; [4]) [pg/mL] | PGC-1α level (%) (PGC-1α; [4]) | % Activity (PGC-1α expression) ([1]; 0.001 nM) | T½ [2] [min] | AUC(0-inf) ([2]; C57BL/6, mouse) [ng·h/mL] | AUC(0-t) ([2]; C57BL/6, mouse) [ng·h/mL] | Cmax ([2]; C57BL/6, mouse) [ng/mL] | Tmax ([2]; C57BL/6, mouse) [min] | % Activity (PGC-1α expression) ([1]; 1 mM)
Oc1cc(O)c2c(c1)O[C@H](c1ccc(O)c(O)c1)[C@H](O)C2 [Epicatechin, (+)-Epicatechin, reference compound] | 33330 pg/mL and 31729 pg/mL and 21967 pg/mL | 63% and 90% and 72% | 3247 | 49 | 129% and 123% and 120% and 122% and 125% |  |  |  |  |  | 
CN(C)C(=O)[C@H]1CCC2C3CCC4=CC(=O)N(C)CC[C@]4(C)C3[C@@H](O)C[C@@]21C (stereo partly drawn) [Compound 50, (5aR,6S,7aS)-6-hydroxy-N,N,3,5a,7a-pentamethyl-2-oxo-2,3,4,5,5a,5b,6,7,7a,8,9,10,10a,10b,11,12-hexadecahydrocyclopenta[5,6]naphtho[1,2-d]azepine-8-carboxamide] | 38684 pg/mL and 24206 pg/mL | 110% and 80% | 2632 | 40 |  | 25.4 | 2540 | 2450 | 2900 | 15 | 
NC(=O)c1ncn([C@@H]2O[C@H](CO)[C@@H](O)[C@H]2O)c1N [AICAR, 5-aminoimidazole-4-carboxamide-1-β-D-ribofuranoside] |  |  |  |  |  |  |  |  |  |  | 148% and 140% and 130% and 128%
